Tested on: 994946-033-R-J1-PDC complex spheroid viability
Assay: Anticancer human tumor 994946-033-R-J1-PDC patient-derived melanoma cell line growth inhibition [POLQ]
Settings: for IC50: curve of first compound; for viability, T/C: stronger effect = lower value
Outline: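 Patient-derived tumour cells were co-cultured with HUVEC and mesenchymal stem cells as multicellular spheroids at 37 °C. They were treated with POLQ inhibitors (novobiocin, ART-558, RP6685) alone or combined with other agents. Top concentrations were at or near clinical Cmax (otherwise 10 microM; SN-38 at 1 microM), decreasing in half-log steps.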

[1] = second compound 0.0316 µM, first compound 0.00316 µM
[2] = second compound 0.0316 µM, first compound 0.01 µM
[3] = second compound 0.0316 µM, first compound 0.0316 µM
[4] = second compound 0.0316 µM, first compound 0.1 µM
[5] = second compound 0.0316 µM, first compound 0.316 µM
[6] = second compound 0.0316 µM, first compound 1 µM
[7] = second compound 0.1 µM, first compound 0.00316 µM
[8] = second compound 0.1 µM, first compound 0.01 µM
[9] = second compound 0.1 µM, first compound 0.0316 µM
[10] = second compound 0.1 µM, first compound 0.1 µM
[11] = second compound 0.1 µM, first compound 0.316 µM
[12] = second compound 0.1 µM, first compound 1 µM
[13] = second compound 0.316 µM, first compound 0.00316 µM
[14] = second compound 0.316 µM, first compound 0.01 µM
[15] = second compound 0.316 µM, first compound 0.0316 µM
[16] = second compound 0.316 µM, first compound 0.1 µM
[17] = second compound 0.316 µM, first compound 0.316 µM
[18] = second compound 0.316 µM, first compound 1 µM
[19] = second compound 1 µM, first compound 0.00316 µM
[20] = second compound 1 µM, first compound 0.01 µM
[21] = second compound 1 µM, first compound 0.0316 µM
[22] = second compound 1 µM, first compound 0.1 µM
[23] = second compound 1 µM, first compound 0.316 µM
[24] = second compound 1 µM, first compound 1 µM
[25] = second compound 3.16 µM, first compound 0.00316 µM
[26] = second compound 3.16 µM, first compound 0.01 µM
[27] = second compound 3.16 µM, first compound 0.0316 µM
[28] = second compound 3.16 µM, first compound 0.1 µM
[29] = second compound 3.16 µM, first compound 0.316 µM
[30] = second compound 3.16 µM, first compound 1 µM
[31] = second compound 10 µM, first compound 0.00316 µM
[32] = second compound 10 µM, first compound 0.01 µM
[33] = second compound 10 µM, first compound 0.0316 µM
[34] = second compound 10 µM, first compound 0.1 µM
[35] = second compound 10 µM, first compound 0.316 µM
[36] = second compound 10 µM, first compound 1 µM
[37] = second compound 0.0316 µM, first compound 3.16 µM
[38] = second compound 0.0316 µM, first compound 10 µM
[39] = second compound 0.1 µM, first compound 3.16 µM
[40] = second compound 0.1 µM, first compound 10 µM
[41] = second compound 0.316 µM, first compound 3.16 µM
[42] = second compound 0.316 µM, first compound 10 µM
[43] = second compound 1 µM, first compound 3.16 µM
[44] = second compound 1 µM, first compound 10 µM
[45] = second compound 3.16 µM, first compound 3.16 µM
[46] = second compound 3.16 µM, first compound 10 µM
[47] = second compound 10 µM, first compound 3.16 µM
[48] = second compound 10 µM, first compound 10 µM
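Also: spheroids exposed to drugs for 7 days.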
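For viability, T/C in this document: 100% = DMSO vehicle treated spheroids.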

Question: How did the IC50 (second compound 0.0316 µM) turn out when `C=CCn1c(=O)c2cnc(Nc3ccc(N4CCN(C)CC4)cc3)nc2n1-c1cccc(C(C)(C)O)n1` + COC1C(OC(N)=O)C(O)C(Oc2ccc3c(O)c(NC(=O)c4ccc(O)c(CC=C(C)C)c4)c(=O)oc3c2C)OC1(C)C was run?
Answer: 855 nM

Question: And the IC50 (second compound 0.1 µM)?
Answer: 863 nM

Question: And the IC50 (second compound 0.316 µM)?
Answer: 675 nM

Question: What about the IC50 (second compound 1 µM) of the same compound?
Answer: > 1000 nM

Question: And the IC50 (second compound 3.16 µM)?
Answer: > 1000 nM

Question: And the IC50 (second compound 10 µM)?
Answer: 966 nM

Question: And the viability, T/C [1]?
Answer: 89.1%

Question: What about the viability, T/C [2] of the same compound?
Answer: 115%

Question: And the viability, T/C [3]?
Answer: 126%

Question: What about the viability, T/C [4] of the same compound?
Answer: 117%

Question: And the viability, T/C [5]?
Answer: 92.8%

Question: And the viability, T/C [6]?
Answer: 43.2%

Question: And the viability, T/C [7]?
Answer: 93.1%

Question: And the viability, T/C [8]?
Answer: 101%

Question: And the viability, T/C [9]?
Answer: 117%

Question: What about the viability, T/C [10] of the same compound?
Answer: 96%

Question: And the viability, T/C [11]?
Answer: 89.2%

Question: What about the viability, T/C [12] of the same compound?
Answer: 44.3%

Question: What about the viability, T/C [13] of the same compound?
Answer: 98.5%

Question: What about the viability, T/C [14] of the same compound?
Answer: 109%

Question: What about the viability, T/C [15] of the same compound?
Answer: 134%

Question: And the viability, T/C [16]?
Answer: 102%

Question: And the viability, T/C [17]?
Answer: 83.9%

Question: What about the viability, T/C [18] of the same compound?
Answer: 32.8%

Question: What about the viability, T/C [19] of the same compound?
Answer: 110%

Question: And the viability, T/C [20]?
Answer: 118%

Question: What about the viability, T/C [21] of the same compound?
Answer: 94.9%

Question: What about the viability, T/C [22] of the same compound?
Answer: 102%

Question: What about the viability, T/C [23] of the same compound?
Answer: 104%

Question: And the viability, T/C [24]?
Answer: 60.8%

Question: And the viability, T/C [25]?
Answer: 91.9%

Question: And the viability, T/C [26]?
Answer: 127%

Question: What about the viability, T/C [27] of the same compound?
Answer: 106%

Question: And the viability, T/C [28]?
Answer: 83.2%

Question: And the viability, T/C [29]?
Answer: 56.5%

Question: What about the viability, T/C [30] of the same compound?
Answer: 53.9%

Question: What about the viability, T/C [31] of the same compound?
Answer: 101%

Question: What about the viability, T/C [32] of the same compound?
Answer: 104%

Question: And the viability, T/C [33]?
Answer: 120%

Question: What about the viability, T/C [34] of the same compound?
Answer: 114%

Question: And the viability, T/C [35]?
Answer: 93.8%

Question: And the viability, T/C [36]?
Answer: 48.6%

Question: What does the source list for `CNCc1ccc(-c2[nH]c3cc(F)cc4c3c2CCNC4=O)cc1` + COC1C(OC(N)=O)C(O)C(Oc2ccc3c(O)c(NC(=O)c4ccc(O)c(CC=C(C)C)c4)c(=O)oc3c2C)OC1(C)C?
Answer: IC50 (second compound 0.0316 µM): > 10000 nM; IC50 (second compound 0.1 µM): > 10000 nM; IC50 (second compound 0.316 µM): > 10000 nM; IC50 (second compound 1 µM): > 10000 nM; IC50 (second compound 3.16 µM): > 10000 nM; IC50 (second compound 10 µM): > 10000 nM; viability, T/C [3]: 114%; viability, T/C [4]: 93.7%; viability, T/C [5]: 96%; viability, T/C [6]: 96.3%; viability, T/C [37]: 101%; viability, T/C [38]: 70.9%; viability, T/C [9]: 107%; viability, T/C [10]: 119%; viability, T/C [11]: 83%; viability, T/C [12]: 114%; viability, T/C [39]: 94.4%; viability, T/C [40]: 93.3%; viability, T/C [15]: 117%; viability, T/C [16]: 126%; viability, T/C [17]: 105%; viability, T/C [18]: 117%; viability, T/C [41]: 107%; viability, T/C [42]: 61.1%; viability, T/C [21]: 107%; viability, T/C [22]: 91.4%; viability, T/C [23]: 88.4%; viability, T/C [24]: 110%; viability, T/C [43]: 109%; viability, T/C [44]: 61.6%; viability, T/C [27]: 92.9%; viability, T/C [28]: 95.2%; viability, T/C [29]: 106%; viability, T/C [30]: 112%; viability, T/C [45]: 99.2%; viability, T/C [46]: 72.8%; viability, T/C [33]: 117%; viability, T/C [34]: 94.6%; viability, T/C [35]: 80.3%; viability, T/C [36]: 85.1%; viability, T/C [47]: 94.5%; viability, T/C [48]: 64.8%

Question: What does the source list for `COc1cccc(OCCCN)c1-c1cc(Nc2cnc(C#N)cn2)n[nH]1` + COC1C(OC(N)=O)C(O)C(Oc2ccc3c(O)c(NC(=O)c4ccc(O)c(CC=C(C)C)c4)c(=O)oc3c2C)OC1(C)C?
Answer: IC50 (second compound 0.0316 µM): 18.8 nM; IC50 (second compound 0.1 µM): 14.3 nM; IC50 (second compound 0.316 µM): 12.1 nM; IC50 (second compound 1 µM): 5.63 nM; IC50 (second compound 3.16 µM): 17.2 nM; IC50 (second compound 10 µM): 4.49 nM; viability, T/C [1]: 73.9%; viability, T/C [2]: 69.9%; viability, T/C [3]: 32.6%; viability, T/C [4]: 24.9%; viability, T/C [5]: 13.1%; viability, T/C [6]: 9.24%; viability, T/C [7]: 84.2%; viability, T/C [8]: 60.2%; viability, T/C [9]: 27.5%; viability, T/C [10]: 14.4%; viability, T/C [11]: 22%; viability, T/C [12]: 11.6%; viability, T/C [13]: 84.3%; viability, T/C [14]: 52.7%; viability, T/C [15]: 34.9%; viability, T/C [16]: 11%; viability, T/C [17]: 26.5%; viability, T/C [18]: 18.1%; viability, T/C [19]: 57.6%; viability, T/C [20]: 42.3%; viability, T/C [21]: 25.7%; viability, T/C [22]: 17.3%; viability, T/C [23]: 30.8%; viability, T/C [24]: 13.8%; viability, T/C [25]: 85.8%; viability, T/C [26]: 54.5%; viability, T/C [27]: 38.7%; viability, T/C [28]: 32.7%; viability, T/C [29]: 19.7%; viability, T/C [30]: 9.09%; viability, T/C [31]: 56.9%; viability, T/C [32]: 34.2%; viability, T/C [33]: 18.9%; viability, T/C [34]: 21.2%; viability, T/C [35]: 20.2%; viability, T/C [36]: 17.5%

Question: Which results are given for `O=C(c1cc(Cc2n[nH]c(=O)c3ccccc23)ccc1F)N1CCN(C(=O)C2CC2)CC1` + COC1C(OC(N)=O)C(O)C(Oc2ccc3c(O)c(NC(=O)c4ccc(O)c(CC=C(C)C)c4)c(=O)oc3c2C)OC1(C)C?
Answer: IC50 (second compound 0.0316 µM): 4750 nM; IC50 (second compound 0.1 µM): 4620 nM; IC50 (second compound 0.316 µM): 4960 nM; IC50 (second compound 1 µM): 4030 nM; IC50 (second compound 3.16 µM): 4790 nM; IC50 (second compound 10 µM): 4210 nM; viability, T/C [3]: 56.5%; viability, T/C [4]: 91.1%; viability, T/C [5]: 100%; viability, T/C [6]: 87.1%; viability, T/C [37]: 57.7%; viability, T/C [38]: 35.9%; viability, T/C [9]: 110%; viability, T/C [10]: 81.5%; viability, T/C [11]: 87.1%; viability, T/C [12]: 73.5%; viability, T/C [39]: 72.4%; viability, T/C [40]: 22.2%; viability, T/C [15]: 93.2%; viability, T/C [16]: 82.2%; viability, T/C [17]: 86.4%; viability, T/C [18]: 67.7%; viability, T/C [41]: 69.8%; viability, T/C [42]: 28.9%; viability, T/C [21]: 99.1%; viability, T/C [22]: 84.5%; viability, T/C [23]: 90.2%; viability, T/C [24]: 69.1%; viability, T/C [43]: 58.1%; viability, T/C [44]: 28.1%; viability, T/C [27]: 84.7%; viability, T/C [28]: 83.2%; viability, T/C [29]: 88.4%; viability, T/C [30]: 76.6%; viability, T/C [45]: 60.4%; viability, T/C [46]: 32.2%; viability, T/C [33]: 95.5%; viability, T/C [34]: 79.2%; viability, T/C [35]: 86%; viability, T/C [36]: 69.9%; viability, T/C [47]: 60.8%; viability, T/C [48]: 27.1%

Source: PubChem BioAssay AID1963827 (Molecular Pharmacology Branch, DTP, NCI, 2024)
